From US11220491B2, “Photoprotective compositions containing Malassezia-derived compounds and/or chemical analogs thereof” (Versicolor Technologies, LLC, priority 2018, dated 2022)
Several values for one entry are separate records, joined by “and”; a condition that tells them apart may be missing. Identical values can stand only once. Like-named read-outs stand apart in the source and are kept apart here.

Legend:
[1] = target: T1, arylhydrocarbon receptor (AhR) (Homo sapiens, UniProt P35869); set-up: HepG2 cells stably transfected with an AhR-responsive luciferase reporter gene plasmid; host or cells: HepG2-AhR-Luc (HepG2 stably transfected with an AhR-responsive luciferase reporter plasmid); details: cited from earlier work
T1 sequence (P35869 11-848): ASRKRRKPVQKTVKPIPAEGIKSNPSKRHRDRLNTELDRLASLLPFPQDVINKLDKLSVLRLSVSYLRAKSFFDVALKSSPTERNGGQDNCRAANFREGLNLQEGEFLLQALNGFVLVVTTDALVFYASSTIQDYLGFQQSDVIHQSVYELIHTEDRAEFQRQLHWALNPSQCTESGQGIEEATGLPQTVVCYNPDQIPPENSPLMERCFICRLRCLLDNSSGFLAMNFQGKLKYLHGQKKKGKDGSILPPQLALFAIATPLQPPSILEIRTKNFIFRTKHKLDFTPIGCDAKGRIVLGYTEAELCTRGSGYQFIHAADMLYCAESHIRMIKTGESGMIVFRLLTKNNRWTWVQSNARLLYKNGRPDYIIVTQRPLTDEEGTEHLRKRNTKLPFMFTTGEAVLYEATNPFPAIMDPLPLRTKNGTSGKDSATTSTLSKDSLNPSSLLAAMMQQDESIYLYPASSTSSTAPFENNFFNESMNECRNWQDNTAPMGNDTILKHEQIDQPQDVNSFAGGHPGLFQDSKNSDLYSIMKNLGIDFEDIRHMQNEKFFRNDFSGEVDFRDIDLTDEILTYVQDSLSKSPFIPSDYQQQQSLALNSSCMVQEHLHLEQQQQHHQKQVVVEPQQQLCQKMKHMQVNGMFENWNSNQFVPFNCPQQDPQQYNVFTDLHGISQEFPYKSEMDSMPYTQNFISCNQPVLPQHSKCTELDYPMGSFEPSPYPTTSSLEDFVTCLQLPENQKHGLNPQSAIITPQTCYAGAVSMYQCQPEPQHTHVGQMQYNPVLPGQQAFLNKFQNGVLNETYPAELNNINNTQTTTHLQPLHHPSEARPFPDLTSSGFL

[2] = target: T1, arylhydrocarbon receptor (AhR); assay: HepG2-AhR-Luciferase assay
Protocol: HepG2-AhR-Luc cells were purchased from Pharmaron, One-Glo Luciferase assay system was purchased from Promega. DMEM was purchased from Hyclone, and penicillin/streptomycin was purchased from Solabio.
Culture media for stably transfected HepG2 cells was prepared by supplementing DMEM with high glucose and L-glutamine, as well as 10% FBS.
HepG2-AhR-Luc cells were cultured in T-75 flasks at 37° C., 5% CO2, and 95% relative humidity. Cells were allowed to reach 80-90% confluence before detachment and splitting.
Cultivated cells were rinsed with 5 mL PBS. PBS was aspirated away, 1.5 mL trypsin was added to the flask, and cells were incubated at 37° C. for approximately 5 minutes or until the cells detached and floated. Trypsin was inactivated by adding excess serum-containing media.
The cell suspension was transferred to a conical tube and centrifuged at 120 g for 10 minutes to pellet the cells. Cells were resuspended in seeding media at a proper density. 40 μL of cells were transferred to a 384-well culture plate (5×10^3 cells/well). Plates were placed in the incubator at 37° C. for 24 hours.
Afterward, stock solutions of test compounds and omeprazole positive control were prepared. Compound solutions were transferred into the assay plate using Echo550. The plate was then placed back into the incubator for compound treatment.
Later, after 24 hours of treatment, the plate was removed from the incubator and allowed to cool at ambient temperature. 30 μL One-Glo reagent equal to that of the culture medium was added in each well. Cells were allowed to lyse for at least 3 minutes, and then measured in a luminometer.
Dose responses were graphed using the non-linear regression analysis in XLfit and EC50 values were also calculated.

MeWo cells [3] = assay: Annexin V assay, additional evaluation (Example 8); assay type: cell-based; details: 100, 10, 1 μM; 6, 24, 48, 72 hours
Protocol: (§1) To further investigate the impact of test compounds on apoptosis, multiple readouts, covering different stages of apoptosis, were carried out on both MeWo and WM115 cells. Both cell types were treated with test compounds at 3 doses (100 μM, 10 μM, and 1 μM). Staurosporine was used as a positive control. […] The test compounds evaluated were CV-8684. CV-8685, and CV-8688.
(§2) Cell seeding was performed as discussed above with the following exceptions: the final cell density was 4,000 cells/well for 6-hour and 24-hour detections, whereas 2,000 cells/well were used for 48-hour and 72-hour detections. For each time point. 384-well clear bottom plates (Corning 3712) and solid white bottom plates (Corning 3570) were prepared. The plates were incubated as discussed above.
(§3) For preparation of the compound source plate, each test compound was dissolved in DMSO to 10 mM stock. Two additional concentrations were generations by 10-fold dilution to 1 mM and 0.1 mM. Staurosporine was used as positive control and 1% DMSO was employed as vehicle (negative) control. The compound source plate was spun at room temperature at 1,000 RPM for 1 minute and agitated using a plate shaker for 2 minutes.
(§4) 400 nL of test compound was transferred from the compound source plate to 384-well culture plates using Echo550 liquid handler. After 6, 24, 48, and 72 hours, the plates were removed from the incubator for detections.
(§5) Culture media was removed and cells were washed twice with PBS. 20 μL of pre-mixed annexin V-FITC working solution was added to each well. The cells were incubated at room temperature for 20 minutes. Plates were read using Acumen eX3 to count the number of FITC-positive cells. The relative activity was calculated according to the following formula: Relative Activity (%)=100%×(Countsample/Countvehicle).

WM115 cells [4] = assay: Annexin V assay, additional evaluation (Example 8); assay type: cell-based; details: 100, 10, 1 μM; 6, 24, 48, 72 hours
Protocol: as §1, §2, §3, §4, §5

MeWo cells [5] = assay: CellTiter-Glo cell viability assay (Example 9); assay type: cell-based; details: 100, 10, 1 μM; 6, 24, 48, 72 hours
Protocol: (§6) CellTiter-Glo® 2.0 assay was purchased from Promega. Cell seeding, preparation of the compound source plate, and exposure of cells to test compounds were performed as described in Example 8.
(§7) CellTiter-Glo® reagents were thawed and equilibrated to room temperature before the experiment. 40 μL of CellTiter-Glo® reagent was then added to each well for detection (at 1:1 ratio to culture medium). The plates were then incubated at room temperature for 30 minutes and read using EnSpire (PerkinElmer) plate reader. The remaining activity was calculated according to the following formula: Remaining Activity (%)=100%×(Lumsample−Lumbkg)/(Lumvehicle−Lumbkg).

WM115 cells [6] = assay: CellTiter-Glo cell viability assay (Example 9); assay type: cell-based; details: 100, 10, 1 μM; 6, 24, 48, 72 hours
Protocol: as §6, §7

MeWo cells [7] = assay: Lactate dehydrogenase (LDH) release assay (Example 10); assay type: cell-based; details: 100, 10, 1 μM; 6, 24, 48, 72 hours
Protocol: (§8) The LDH assay quantitatively measures lactate dehydrogenase (“LDH”) released into the media from damaged cells as a biomarker for cytotoxicity and cytolysis.
(§9) CytoTox-ONE™ Homogenous Membrane Integrity Assay was purchased from Promega. Cell seeding, preparation of the compound source plate, and exposure of cells to test compounds were performed as described in Example 8.
(§10) Plates were then centrifuged at 1,000 RPM for 1 minute. 20 μL of cell culture medium was transferred into a new 384-well black solid plate. Then, 20 μL of CytoTOX-ONE™ was added into each well and incubated at room temperature for 10 minutes. Afterward, 10 μL of stop solution were added to each well, and the plates were agitated at 500 rpm for 1 minute. Plates were read using an excitation wavelength of 560 nm and an emission wavelength of 590 nm on EnSpire. The relative activity was calculated according to the following formula: Relative Activity (%)=100%×(Lumsample−Lumbkg)/(Lumvehicle−Lumbkg).

WM115 cells [8] = assay: as above; assay type: cell-based; details: 100, 10, 1 μM; 6, 24, 48, 72 hours
Protocol: as §8, §9, §10

MeWo cells [9] = assay: Cell morphology after treatment (Example 6); assay type: cell-based; details: 100 μM, 6 hours
WM115 cells [10] = assay: Cell morphology after treatment (Example 6); assay type: cell-based; details: 100 μM, 6 hours
[11] = cited from earlier work
Candida albicans = details: cited from earlier work
staphylococci = details: cited from earlier work
[12] = EC50 (uM), Table 2, 24 hours of treatment
[13] = EC50 (uM), Table 1, 24 hours of treatment

Molecule: O=Cc1c2[nH]c3ccccc3c2cc2[nH]c3ccccc3c12 [6-formylindolo[3,2-b] carbazole (FICZ), 6-formylindolo[3,2-b] carbazole]
- AhR agonism [1]: Agonists

Molecule: O=C(Cc1c[nH]c2ccccc12)Cc1c[nH]c2ccccc12 [AB12976]
- EC50 [2, 12]: 16.5 µM

Molecule: O=C[C@@H]1Cc2c([nH]c3ccccc23)[C@@H](c2c[nH]c3ccccc23)CN1 [AB17011, Malassezia Indole A]
- EC50 [2, 12]: 35.8 µM

Molecule: O=C(c1c[nH]c2ccccc12)c1nccc2c1[nH]c1ccccc12 [AB17014, Pityriacitrin]
- EC50 [2, 12]: 3.46 µM

Molecule: COC(=O)c1c(C(c2c[nH]c3ccccc23)C2CC2)[nH]c2ccccc12 (stereo not drawn) [AB17151]
- EC50 [2, 12]: 13.7 µM

Molecule: Cc1ccc2c(c1)[nH]c1c(C)c3c(cc12)[nH]c1ccccc13 [AB17225]
- EC50 [2, 12]: 3.93 µM

Molecule: O=Cc1c(Cc2c[nH]c3ccccc23)[nH]c2ccccc12 [CV-8684, Malassezin]
- apoptosis induction (annexin V binding) (MeWo cells [3]): induced apoptosis at the highest concentration tested after 6 hours of treatment
- apoptosis induction (annexin V binding) (WM115 cells [4]): induced apoptosis at the highest concentration tested after 6 hours of treatment
- inhibition of cell viability (MeWo cells [5]): dose-dependent inhibition of cell viability
- inhibition of cell viability (WM115 cells [6]): dose-dependent inhibition of cell viability
- LDH release (MeWo cells [7]): did not induce significant release
- LDH release (WM115 cells [8]): did not induce significant release
- cell morphology (MeWo cells [9]): significantly affected
- cell morphology (WM115 cells [10]): significantly affected
- EC50 [2, 13]: 4.19 µM

Molecule: c1ccc2c(c1)[nH]c1cc3c(cc12)[nH]c1ccccc13 [CV-8685, indolo[3,2-b] carbazole]
- apoptosis induction (annexin V binding) (MeWo cells [3]): 48 hours of treatment appeared to elicit apoptosis
- apoptosis induction (annexin V binding) (WM115 cells [4]): showed the induction effect with 24 hours of treatment
- inhibition of cell viability (WM115 cells [6]): inhibitory effect on WM115 cell viability in a dose-dependent manner only after 24-hour treatment
- LDH release (WM115 cells [8]): dose-dependent induction effect on LDH release
- cell morphology (WM115 cells [10]): only affect WM115
- EC50 [2, 13]: 6.6 µM
- EC50 [2, 12]: 15.2 µM

Molecule: OCc1c(Cc2c[nH]c3ccccc23)[nH]c2ccccc12 [CV-8803]
- EC50 [2, 13]: 13.9 µM

Molecule: CC(c1[nH]c2ccccc2c1CO)c1c[nH]c2ccccc12 (stereo not drawn) [CV-8804]
- EC50 [2, 13]: 15.7 µM

Molecule: Cc1ccc2cc3c(ccc4ccccc43)c3c2c1CC3 [Compound 3-MC, 3-methylcholanthrene, reference compound]
- EC50 [2]: 4.34 µM

Molecule: O=Cc1c(C(=O)c2c[nH]c3ccccc23)[nH]c2ccccc12 [Compound A5 (CV-8819)]
- EC50 [2, 12]: 4.11 µM

Molecule: CC(c1[nH]c2ccccc2c1C(=O)O)c1c[nH]c2ccccc12 (stereo not drawn) [Compound B10]
- EC50 [2, 12]: 4.29 µM

Molecule: COC(c1[nH]c2ccccc2c1C=O)c1c[nH]c2ccccc12 (stereo not drawn) [Compound H (AB12509)]
- EC50 [2, 12]: 11.6 µM

Molecule: Cc1ccc2c(Cc3[nH]c4ccccc4c3C=O)c[nH]c2c1 [Compound I (CV-8686)]
- EC50 [2, 12]: 5.45 µM

Molecule: CC(c1[nH]c2ccccc2c1C=O)c1c[nH]c2ccccc12 (stereo not drawn) [Compound II (CV-8688]
- EC50 [2, 12]: 13.4 µM

Molecule: Cc1ccc2c(c1)[nH]c1cc3c(cc12)[nH]c1ccccc13 [Compound IV (CV-8687)]
- EC50 [2, 12]: 33.6 µM

Molecule: O=C1Nc2ccccc2/C1=C1/Nc2ccccc2C1=O [Indirubin]
- AhR agonism [1]: known agonist

Molecule: c1ccc2[nH]c(Cc3c[nH]c4ccccc34)cc2c1 [Malassezin Precursor]
- EC50 [2, 12]: 37.3 µM

Molecule: COc1ccc2[nH]c([S+]([O-])Cc3ncc(C)c(OC)c3C)nc2c1 (stereo not drawn) [Omeprazole, omeprazole, reference compound]
- EC50 [2, 13]: 21.4 µM
- EC50 [2, 12]: 42.3 µM and 39.8 µM

Molecule: Clc1cc2c(cc1Cl)Oc1cc(Cl)c(Cl)cc1O2 [TCDD, 2,3,7,8-tetrachlorodibenzodioxin, reference compound]
- EC50 [2, 12]: 0.0018 µM and 0.0031 µM

Molecule: Nc1c(C(=O)O)c2nc3c(C(=O)O)cccc3oc-2cc1=O [cinnabarinic acid]
- AhR agonism [1]: Agonists

Molecule: Nc1ccccc1C(=O)CC(N)C(=O)O (stereo not drawn) [kynurenine]
- AhR agonism [1]: Agonists

Molecule: Pityriacitrin
- SPF ([11]; 1.25% cream): 1.4
- SPF ([11]; 2.5% cream): 1.5
- SPF ([11]; 5% cream): 1.7
- UV-protective effect (Candida albicans): UV-protective effect
- toxicity (Candida albicans): no toxicity
- UV-protective effect (staphylococci): UV-protective effect
- toxicity (staphylococci): no toxicity
